In brackets after ≈: the same amount, converted by molar mass. Marks after values point to notes of the source that are not given here.
Assays:
COC1 cell = assay: Inhibition of COC1 cell growth measured by MTT method; type: cell-based; conditions: Homo sapiens, COC1 cells, 48 hours; for IC50: Calcusyn program
Procedure: (§1) Cell lines of COC1, SMMC-7721, MCF-7and HT-29 were purchased from Chinese storage center for typical culture. Cells were cultured in RPMI1640 with 10% FCS at 37°C and 5% of CO2. Cells at log phase were harvested for the experiment.
(§2) Cells growth inhibition was measured with MTT method. Cells suspension of 1.0-1.2×10^5/ml were prepare and transferred to 96 well plate, 180µl per well. After further incubation for 2 hours, 20µl of various reagents were added to each well. The cells were back to incubator for 48 hours, and followed with addition of MTT of 20µl (5mg/ml)to each will. Additional incubation 6 hours later, the plate was centrifuged at 1000 rpm for 5 minutes. After aspirating supernatant, 100µl DMSO were added to each well and the optical density were measured at 490nm. The cells inhibition (IR) is calculated as : IR(%)=[1-A(treated)/A(control)]×100% , where is A is optical density. The IR was analyzed using Calcusyn program to determine the IC50 of each drug

[1] = system: MDA-MB-435 human breast cancer cells; assay: Growth inhibition of MDA-MB-435 cells measured with MTT method (example titled induction of apoptosis); type: cell-based; conditions: for cells growth (percentage of the control group): p value less than 0.005
Procedure: Experimental design: MDA-MB-435 human breast cancer cells were cultured in the DMEM medium with 5% FCS. Cells were treated with VB-1 at 2 µM, 4 µM and 10 µM for 3 days. Cells were collected from control and treated groups and measured with MTT method.

HT-29 cell = assay: Inhibition of HT-29 cell growth (MTT method); type: cell-based; conditions: Homo sapiens, HT-29 cells, 48 hours
Procedure: as §1, §2

MCF-7 cell = assay: Inhibition of MCF-7 cell growth (MTT method); type: cell-based; conditions: Homo sapiens, MCF7, MCF-7 cells, 48 hours; for IC50: Calcusyn program
Procedure: as §1, §2

SMMC-7721 cell = assay: Inhibition of SMMC-7721 cell growth measured by MTT method; type: cell-based; conditions: Homo sapiens, SMMC-7721 cells, 48 hours
Procedure: as §1, §2

Akt = assay: Inhibition of Akt activation (phosphorylation) in breast cancer cells, Western analysis; type: cell-based, human; conditions: MDA-MB-435 cells; for inhibition of Akt activation by suppressing its phosphorylation: 12 hours, 0, 0.5 µM, 4 µM, and 8 µM, Fig. 3; for levels of total non-phosphorylated Akt protein: Western analysis; for Akt phosphorylation: dose of 4 µM
Procedure: Experimental Design: MDA-MB-435 human breast cancer cells were cultured in the DMEM medium with 5% FCS. When cells reached approximately 50-60% confluence, cells were treated with VB-1 and VB-2 for 12 hours at the following doses: 0, 0.5 µM, 4 µM, and 8 µM. Control and treated cells are harvested and total protein was isolated, normalized, and 45 µg of total protein was subjected to Western analysis. The expression of phosphorylated Akt was determined by using a specific anti-phosphorylated Akt antibody and normalized for total Akt protein expression.

[2] = system: human ovarian tumor cells (CoC1); assay: In vivo tumor treatment model: nude mice inoculated with CoC1 tumor cells, tumor volume; design: species or system Balb/c-nu mice; conditions: for Suppression rate of tumor growth (%): vs. control (NS); for Volume (mm^3): x±s, n=4
Procedure: Experimental Design: Human ovarian tumor cells (CoC1) were purchased from Chinese storage center for typical culture. Cells were cultured in RPMI1640 with 10% FCS. Sub-culture for every 2-3 days. Cells at log phase were harvested for the experiment. Approximately 2x10^6 CoC1 cells were injected subcutaneously into the back of the Balb/c-nu female nude mice at the age of 6-7 weeks. When tumors reached to ≥ 1000 mm^3 (about 30 days), mice bearing similar size tumors were divided into 2 groups: control (NS) and VB-2 treated group. Each group has 4 mice.
VB-2 was dissolved into DMSO and further diluted with normal saline. […] Treatment groups received drugs every other day until the termination of the experiment. All mice were sacrificed at day 20 after the first treatment. Tumor size was determined by three-dimensional measurements (mm) using a caliper. Only measurable tumors were used to calculate the mean tumor volume for each clone at each time point. Each point represents the mean of tumors ± SE. Statistical comparisons for tumor size in treated mice relative to control mice indicate: ** p < 0.01.

Work on `COc1cc([C@H]2c3cc(O)c(OC)cc3C=C(C=O)[C@@H]2CO)ccc1O` [VB-1, 6-hydroxy-4-(4-hydroxy-3-methoxyphenyl)-3-hydroxymethyl-7-methoxy-3,4-dihydro-(3R, 4S)-2-naphthaldehyde] yielded an inhibition at 0.4 µg/mL (COC1 cell; 0.4 µg/ml) of 27.1%, an inhibition at 0.5 µg/mL (COC1 cell) of 42.7% and an inhibition at 0.6 µg/mL (COC1 cell; 0.6 µg/ml) of 48.1%. The inhibition at 0.8 µg/mL (COC1 cell; 0.8 µg/ml) was 65.9%, the inhibition at 1 µg/mL (COC1 cell; 1.0 µg/ml) was 66.9% and the IC50 (COC1 cell) was 0.63 µg/mL (≈ 1.77 µM). The cell inhibition ([1]; 2 µM, 4 µM and 10 µM for 3 days, Fig 4) was “dose dependent cell inhibition”, the “cells growth (percentage of the control group)” value ([1]; 4 µM, 3 days) was “significantly less than the control group” and the “cells growth (percentage of the control group)” value ([1]; 8 µM, 3 days) was “significantly less than the control group”. It also gave an inhibition at 10 µM ([1]; Homo sapiens, 72 h, 10 µM, 3 days) of about 50%, an inhibition at 1 µg/mL (HT-29 cell; 1.00 µg/ml) of 22.1% and an inhibition at 10 µg/mL (HT-29 cell; 10.00 µg/ml) of 32.3%. For the same compound, the inhibition at 0.1 µg/mL (MCF-7 cell) was 6.4%, the inhibition at 0.3 µg/mL (MCF-7 cell) was 9.1% and the inhibition at 1 µg/mL (MCF-7 cell) was 12.7%. The inhibition at 3 µg/mL (MCF-7 cell) was 13.8%, the inhibition at 10 µg/mL (MCF-7 cell) was 41.1% and the IC50 (MCF-7 cell) was 58 µg/mL (≈ 163 µM). The inhibition at 1 µg/mL (SMMC-7721 cell; 1.00 µg/ml) was 20.1%, the inhibition at 10 µg/mL (SMMC-7721 cell; 10.00 µg/ml) was 22.3% and the “inhibition of Akt activation by suppressing its phosphorylation” value (Akt) was “dose-dependent inhibition”. The “levels of total non-phosphorylated Akt protein” value (Akt; 12 hours) was “no effects”, the Akt phosphorylation (Akt; 12 hours) was “significantly block” and the Akt activation (Akt; 12 hours, dose of 8 µM) was “completely blocks”.
`COc1cc([C@H]2c3c(ccc(O)c3OC)C=C(C=O)[C@@H]2CO)ccc1O` [VB-2, 6-hydroxy-4-(4-hydroxy-3-methoxyphenyl)-3-hydroxymethyl-5-methoxy-3,4-dlhydro(3R, 4S)-2-naphthaldehyde] was tested, and the “Suppression rate of tumor growth (%)” value ([2]; day 5, dosage 5 mg/kg, i.p. every other day) was 7.8%, the “Suppression rate of tumor growth (%)” value ([2]; day 10, dosage 5 mg/kg, i.p. every other day) was 66.5% and the “Suppression rate of tumor growth (%)” value ([2]; day 15, dosage 5 mg/kg, i.p. every other day) was 64.5%. For the same compound, the “Suppression rate of tumor growth (%)” value ([2]; day 20, dosage 5 mg/kg, i.p. every other day) was 55.7%, the “Volume (mm^3)” value ([2]; initial tumor volume before treatment, dosage 5 mg/kg) was 1543±1466 mm^3 and the “Volume (mm^3)” value ([2]; tumor volume at day 5, dosage 5 mg/kg, i.p. every other day) was 2542±1718 mm^3. The “Volume (mm^3)” value ([2]; tumor volume at day 10, dosage 5 mg/kg, i.p. every other day) was 2131±1207* mm^3, the “Volume (mm^3)” value ([2]; tumor volume at day 15, dosage 5 mg/kg, i.p. every other day) was 3600±1755* mm^3 and the “Volume (mm^3)” value ([2]; tumor volume at day 20, dosage 5 mg/kg, i.p. every other day) was 4495±2087** mm^3. It also gave an inhibition at 0.5 µg/mL (COC1 cell) of 39.9%, an inhibition at 5 µg/mL (COC1 cell) of 34.1% and an inhibition at 50 µg/mL (COC1 cell) of 39.5%. The inhibition at 0.1 µg/mL (MCF-7 cell) was 10.6%, the inhibition at 0.3 µg/mL (MCF-7 cell) was 15.8% and the inhibition at 1 µg/mL (MCF-7 cell) was 17.6%. The inhibition at 3 µg/mL (MCF-7 cell) was 26.4%, the inhibition at 10 µg/mL (MCF-7 cell) was 28.7% and the IC50 (MCF-7 cell) was 226 µg/mL (≈ 635 µM). For the same compound, the “inhibition of Akt activation by suppressing its phosphorylation” value (Akt) was “dose-dependent inhibition”, the “levels of total non-phosphorylated Akt protein” value (Akt; 12 hours) was “no effects” and the Akt phosphorylation (Akt; 12 hours) was “significantly block”.
Compound `COc1cc([C@H]2c3cc(O)c(OC)cc3C=C(C=O)[C@@H]2CO[C@@H]2O[C@H](CO)[C@@H](O)[C@H](O)[C@H]2O)ccc1O` [VB-3, 6-hydroxy-4-(4-hydroxy-3-methoxyphenyl)-3-glucosyloxymethyl-7-methoxy-3,4-dihydro-(3R, 4S)-2-naphthaldehyde] has an inhibition at 0.1 µg/mL (MCF-7 cell) of 10.6%, an inhibition at 0.3 µg/mL (MCF-7 cell) of 11.3% and an inhibition at 1 µg/mL (MCF-7 cell) of 14%. It also gave an inhibition at 3 µg/mL (MCF-7 cell) of 18.5%, an inhibition at 10 µg/mL (MCF-7 cell) of 13.8% and an IC50 (MCF-7 cell) of 9260 µg/mL (≈ 17900 µM).
`COc1cc([C@H]2c3cc(O)c(OC)cc3C=C(CO)[C@@H]2CO)ccc1O` [VB-4, 6-hydroxy-7-methoxy-4-(4-hydroxy-3-methoxyphenyl)-2,3-dihydroxymethyl-3,4-dihydro(3R, 4S)-2-hydroynaphthalene] was tested, and the inhibition at 0.5 µg/mL (COC1 cell) was 38.8%, the inhibition at 5 µg/mL (COC1 cell) was 40.2% and the inhibition at 50 µg/mL (COC1 cell) was 40.6%. It also gave an inhibition at 0.1 µg/mL (MCF-7 cell) of 19.7%, an inhibition at 0.3 µg/mL (MCF-7 cell) of 15.6% and an inhibition at 1 µg/mL (MCF-7 cell) of 12.3%. For the same compound, the inhibition at 3 µg/mL (MCF-7 cell) was 13.2% and the inhibition at 10 µg/mL (MCF-7 cell) was 24%.
In the case of `COc1cc2c(cc1O)[C@H](c1ccc(O[C@@H]3O[C@H](C(=O)O)[C@@H](O)[C@H](O)[C@H]3O)c(OC)c1)[C@@H](CO)C(C=O)=C2` [VB-5, 6-hydroxy-3-hydroxymethyl-4-(3-methoxyphenyl)-7-methoxy-3,4-dihydro-2-naphthaldehyde-4'-O-β-D-glucopyranosiduronic acid], the inhibition at 0.5 µg/mL (COC1 cell) is reported as 14.3%, the inhibition at 5 µg/mL (COC1 cell) is reported as 28.7% and the inhibition at 50 µg/mL (COC1 cell) is reported as 35.2%. For the same compound, the IC50 (COC1 cell) was 371 µg/mL (≈ 697 µM), the inhibition at 0.1 µg/mL (MCF-7 cell) was 13.6% and the inhibition at 0.3 µg/mL (MCF-7 cell) was 22%. The inhibition at 1 µg/mL (MCF-7 cell) was 23.2%, the inhibition at 3 µg/mL (MCF-7 cell) was 13.6% and the inhibition at 10 µg/mL (MCF-7 cell) was 30.4%. It also gave an IC50 (MCF-7 cell) of 471 µg/mL (≈ 885 µM).
`COc1ccc(C2c3cc(OC)c(OC)cc3C=C(C=O)C2CO)cc1OC` (centres unmarked) [VB-6, 6-methoxy-4-(4-methoxy-3-methoxyphenyl)-3-hydroxymethyl-7-methoxy-3,4dihydro-2-naphthaldehyde] gave an inhibition at 0.5 µg/mL (COC1 cell) of 37%, an inhibition at 5 µg/mL (COC1 cell) of 45.6% and an inhibition at 50 µg/mL (COC1 cell) of 57.1%. The IC50 (COC1 cell) was 11.1 µg/mL (≈ 28.8 µM), the inhibition at 0.1 µg/mL (MCF-7 cell) was 10.9% and the inhibition at 0.3 µg/mL (MCF-7 cell) was 19.9%. For the same compound, the inhibition at 1 µg/mL (MCF-7 cell) was 22.8%, the inhibition at 3 µg/mL (MCF-7 cell) was 41.2% and the inhibition at 10 µg/mL (MCF-7 cell) was 46.4%. The IC50 (MCF-7 cell) was 11.2 µg/mL (≈ 29 µM).
`COc1cc([C@H]2c3cc(OC)c(OC)cc3C=C(C=O)[C@@H]2CO)ccc1O` [VB-7, 6,7-dimethoxy-4-(4-hydroxy-3-methoxyphenyl)-3-hydroxymethyl-3,4-dihydro (3R,4S) -2-naphthaldehyde] gave an inhibition at 0.5 µg/mL (COC1 cell) of 14.3%, an inhibition at 5 µg/mL (COC1 cell) of 27.6% and an inhibition at 50 µg/mL (COC1 cell) of 50%. It also gave an IC50 (COC1 cell) of 53.2 µg/mL (≈ 144 µM).

From patent EP1972611A1, “ARYL DIHYDRO-NAPHTHALENE COMPOUNDS, THEIR PREPARATION AND THEIR USE AS AKT INHIBITOR FOR THE PREVENTION AND TREATMENT OF CANCER” (Central South University, priority 2005, dated 2007)
